This is an account of results in patent US6348317B1, “Fluorescent and DNA cleavage properties of peptide/dye conjugates” (The Arizona Board of Regents, priority 1999, dated 2002).

Like-named read-outs stand apart in the source and are kept apart here.

Experiment [1] deals with poly(dG)-poly(dC) 20-mer. Kind of experiment: Thiazole orange total fluorescence titration with non-target DNA. The conditions noted are these: 50 nM TO-ZF or TO; fit to equation 2; read-out: dissociation constant, non-specific binding.
Experimental: For non-labeled DNA titrations (measuring the fluorescence from thiazole orange), the excitation wavelength was 510 nm and the emission was recorded at 535 nm with a 1.0 nm slit width. Glass cuvettes were used with a 0.3 cm path length.
The parameter of the fit was the dissociation constant (Kd).
For experiment [2], the target named is dsDNA. The conditions noted are these: cited from earlier work.
The target in experiment [3] is fluorescein labeled GRE2 sequence dsDNA (F-GRE2). Kind of experiment: Total fluorescence quenching (energy transfer) of fluorescein labeled DNA. The experiment is classed as binding. How it is done:
Fluorescence Measurements. Steady state fluorescence anisotropy measurements were carried out in 20 mM Tris (pH 7.9), 30 mM NaCl, 20 mM KCl, 1 mM MgCl2, and 5% glycerol. […] DNA samples used were either the non-labeled sequences shown in FIG. 2 or a fluorescein labeled duplex with a sequence matching GRE2 (FIG. 2).
For fluorescein labeled DNA measurements, the excitation wavelength was 491 nm and the emission was recorded at 521 nm with a 1.0 nm slit width. Titrations were performed holding the concentration of fluorescein-labeled DNA constant and increasing the concentration of TO, ZF or TO-ZF as indicated. To correct for the small amount of background fluorescence from TO in these measurements, control experiments were performed in parallel using DNA that was not fluorescein labeled, but was otherwise identical to the labeled DNA fragments. The thiazole orange fluorescence intensity measured in the control experiments was subtracted from the total fluorescence intensity for each data point. Under the excitation conditions of these measurements, the contribution to fluorescence by TO at 521 nm was less than 5% of the maximum fluorescence signal observed in the experiment. Even at the point in the titration where the maximum quenching of fluorescein fluorescence was observed (the point of lowest total fluorescence in the measurement), less than half of the fluorescence was due to TO, and this could accurately be removed by subtraction of the control value. Each point is an average of 60 measurements, and each titration was performed independently three times.
Total fluorescence data were collected in parallel to the anisotropy measurements and were calculated from raw data as the fluorescence intensity in the vertical plane plus two times the fluorescence intensity of the horizontal plane, (TF=Ivv+2Ivh). These values were used to determine the percent of the maximum fluorescence for each point along the titration and fit to equation 2. [formula] […]
Fluorescence changes upon binding of TO, ZF and TO-ZF to GRE containing duplex DNA. Equilibrium binding of the non-labeled zinc finger (ZF), unconjugated thiazole orange (TO) and thiazole orange-zinc finger conjugate (TO-ZF) to fluorescein labeled GRE2 sequence dsDNA was measured by both fluorescence anisotropy and total fluorescence. […] For fluorescein fluorescence, excitation was at 491 nm and emission was detected at 521 nm. […] Changes in the steady-state anisotropy of the fluorescein fluorescence from the labeled GRE sequence containing DNA (F-GRE2) can arise from two sources. […] By comparison, the amino acid zinc finger Xfin-31 was determined to have a dissociation constant of approximately 1 μM, M. S. Lee, et al., FEBS 279:289-294 (1991), whereas, the 66 amino acid zinc finger from GATA-1 has a dissociation constant of 10 nM. […]

For `CN1C(=Cc2cc[n+](C)c3ccccc23)Sc2ccccc21` [TO, thiazole orange], the Kd in experiment [1] is 2400 nM; in experiment [2] (5-fold higher salt concentration, Nygren et al., Biopolymers 1998, read-out: dissociation constant for binding to dsDNA) it was around 3000 nM; in experiment [2] (Haugland 1996, Netzel et al. 1995, read-out: Kd (moderate affinity DNA binding)) it was around 10000 nM; in experiment [3] (50 nM F-GRE2, interpretation cautioned (many binding sites), read-out: dissociation constant from quenching curve), 2400 nM. Further, the “change in total fluorescein fluorescence over the titration” value in experiment [3] (excitation 491 nm, emission 521 nm) is on record as “large decreases in steady state fluorescence”.
